Source: patent publication US12509460B2 (Skyhawk Therapeutics, Inc., priority 2019, dated 2025)

Legend:
MDR1 (P-gp) = experiment: in vitro; details: dog, MDCK-MDR1, pH 7.4
MDR1 = experiment: in vitro; details: dog, MDCK-MDR1, pH 7.4
[1] = tested on: mHTT protein in GM04724 (CAG 70/20) Huntington's disease patient lymphoblast cells; experiment: mHTT protein assay, 2B7-MW1 assay via Mesoscale Discovery (MSD); format: cell-based, human
Outline: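 Patient lymphoblasts treated 48 h with compound from 10 μM to 0.6 nM. mHTT quantified by MSD 2B7-MW1 immunoassay, whose signal depends on polyQ expansion and HTT size. Viability measured on a replicate plate by CellTiter Glo.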

[2] = tested on: MDR1-MDCK cell monolayers; details: dog, MDCK-MDR1, 120 min, 5 μM, pH 7.4
[3] = tested on: SMN protein in spinal muscular atrophy (SMA) patient fibroblasts (GM03813, Coriell); experiment: SMN protein assay, Mesoscale Discovery (MSD); format: cell-based, human; details: for EC50: read-out: SMN2 protein EC50
Outline: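 SMA patient fibroblasts (GM03813) seeded at 7000 cells/well and exposed to compound at 2.5 μM to 0.6 nM for 48 hours. Lysates assayed for SMN by MSD immunoassay, with absolute SMN amount calculated from a per-plate SMN standard curve (1 μg/ml to 19.5 pg/ml).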

[4] = tested on: SMN FL and SMN Δ7 in spinal muscular atrophy (SMA) patient fibroblasts (GM03813, Coriell); experiment: Quantitative splicing assay (SMN), qPCR; format: cell-based, human; details: Homo sapiens, Fibroblast; SMA patient fibroblasts GM03813, 24 h, qPCR; read-out: SMN2 Splicing FL EC50
Experimental: Spinal muscular atrophy (SMA) patient fibroblasts (GM03813, Coriell) are plated in 96-well plates at 50,000 cells/well. […] Treated cells are lysed and cDNA synthesized using the Fast Advanced Cells-to-Ct kit (Thermofisher A35378) according to the manufacturer's instructions. 2 μL of each cDNA are used in qPCR reactions. […] Reactions are run in a Quant Studio 6 qPCR instrument with default settings.

[5] = GM04724 Huntington's disease patient lymphoblasts
[6] = SMA patient fibroblasts GM03813, 48 hours, MSD
[7] = GM04724 (CAG 70/20) Huntington's disease patient lymphoblasts
[8] = SMA patient fibroblasts (GM03813), 48 hours

Row | Compound | Papp A→B at 120 min, 5 μM (MDR1 (P-gp)) [×10⁻⁶ cm/s] | Papp B→A at 120 min, 5 μM (MDR1 (P-gp)) [×10⁻⁶ cm/s] | efflux ratio at 120 min, 5 μM (MDR1) | mHTT protein EC50 [1, 5] | MDCK-MDR1: % Recov A-B [2] [%] | MDCK-MDR1: % Recov B-A [2] [%] | EC50 [3, 6] [nM] | mHTT protein EC50 [1, 7] | SMN2 protein EC50 [3, 8] | EC50 [1, 5] [nM] | SMN2 protein EC50 [3, 6] | EC50 [4] [µM]
1 | CN(c1ccc(-c2ccc(Oc3cnn(C)c3)cc2O)nn1)[C@@H]1C[C@H]2CC[C@H](N2)[C@@H]1F (single isomer, unassigned) [Compound 91A] | 4.19 | 62.8 | 15 | E (501 ≤ E ≤ 10.000) | 84 | 82 | 101 to 500 |  |  |  |  | 
2 | CN(c1ccc(-c2cc3ncn(CC(F)(F)F)c(=O)c3cc2O)nn1)[C@@H]1C[C@H]2CCC[C@@H]([C@@H]1F)N2C (single isomer, unassigned) [Compound 109A] | 2.72 | 63.3 | 23 |  | 76 | 81 |  | E (501 ≤ E ≤ 10.000) | E (501 ≤ E ≤ 10.000) |  |  | 
3 | CN(c1ccc(-c2cc3ncn(CC(F)(F)F)c(=O)c3cc2O)nn1)[C@@H]1C[C@H]2CC(F)(F)[C@@H](C1)N2C (single isomer, unassigned) [Compound 110A] | 11 | 44.4 | 4 |  | 80 | 92 |  | E (501 ≤ E ≤ 10.000) | E (501 ≤ E ≤ 10.000) |  |  | 
4 | CCc1cn(-c2ccc(-c3ccc(N(C)[C@H]4C[C@@H]5CC(F)(F)[C@H](C4)N5)nn3)c(O)c2)cn1 [Compound 18B, 2-(6-(((1R,3S,5S)-6,6-difluoro-8-azabicyclo[3.2.1]octan-3-yl)(methyl)amino)pyridazin-3-yl)-5-(4-ethyl-1H-imidazol-1-yl)phenol] | 8.37 | 35.6 | 4 |  | 55 | 69 |  |  |  | 101 to 500 | E (501 ≤ E ≤ 10.000) | 
5 | CN(c1ccc(-c2cn3c(=O)ccnc3cc2O)nn1)[C@@H]1C[C@H]2CC[C@@H]([C@@H]1F)N2C (single isomer, unassigned) [Compound 95A] | 0.15 | 8.79 | 59 | E (501 ≤ E ≤ 10.000) | 85 | 115 |  |  |  |  | E (501 ≤ E ≤ 10.000) | 
6 | CNC(=O)c1cc(O)c(-c2ccc(N(C)[C@@H]3C[C@H]4CC[C@H](N4)[C@@H]3F)nn2)cc1F [Compound 47A, 2-fluoro-4-(6-(((1S,2S,3R,5R)-2-fluoro-8-azabicyclo[3.2.1]octan-3-yl)(methyl)amino)pyridazin-3-yl)-5-hydroxy-N-methylbenzamide] | 1.45 | 49.3 | 34 |  | 98 | 108 | 101 to 500 |  |  | 101 to 500 |  | 0.501 to 10
7 | CN(c1ccc(-c2ccc(C(F)F)cc2O)nn1)[C@H]1C[C@@H]2CC[C@@H](N2)[C@H]1F (single isomer, unassigned) [Compound 120B] | 5.84 | 27.3 | 5 |  | 60 | 76 |  | E (501 ≤ E ≤ 10.000) | E (501 ≤ E ≤ 10.000) |  |  | 
8 | Cc1nc2cc(-c3ccc(N(C)[C@@H]4C[C@H]5CC[C@@H]([C@@H]4F)N5C)nn3)c(O)cc2c(=O)n1CC(F)(F)F (single isomer, unassigned) [Compound 130A] | 0.67 | 75.4 | 113 |  | 105 | 116 |  | E (501 ≤ E ≤ 10.000) | E (501 ≤ E ≤ 10.000) |  |  | 
9 | CN(c1ccc(-c2cn3c(=O)ccnc3cc2O)nn1)[C@@H]1C[C@H]2CC[C@H](N2)[C@@H]1F (single isomer, unassigned) [Compound 82A] | 0.08 | 3.33 | 40 | E (501 ≤ E ≤ 10.000) | 104 | 121 | 101 to 500 |  |  |  |  | 
